Measured values reported in patent publication US10590128B2, “6,7,8,9-tetrahydro-5H-pyrido[2,3-d]azepine dopamine D3 ligands” (Pfizer Inc., priority 2016, dated 2020).

What was measured:
[1] = target: human dopamine D3 receptor (hD3R) (Homo sapiens, UniProt P35462); assay: Human D3 receptor binding assay ([^3H]-7-OH-DPAT); conditions: CHO cells expressing hD3R, geometric mean of 2-5 determinations unless marked b (single determination), read-out: hD3 in CHO cells Ki
Protocol: (§1) Human D2 Receptor and Human D3 Receptor Binding Assays:
(§2) These determined ligand and tissue concentrations were utilized in time course studies to determine linearity and equilibrium conditions for binding. […] The hD2R assay buffer contains 50 mM Tris (pH 7.4 @ 37° C.), 100 mM NaCl and 1 mM MgCl2. The hD3R assay buffer consists of 50 mM Tris (pH 7.4 at 37° C.), 120 mM NaCl, 5 mM MgCl2, 5 mM KCl and 2 mM CaCl2. Competitive binding experiments were initiated by the addition of 200 μL of the respective cell homogenate to 96-well plates containing […] test drugs (10 concentrations using ½ log dilutions) and 50 μL of ^3H-radioligand for a final volume of 250 μL. Non-specific binding was determined by radioligand binding in the presence of a saturating concentration of Haldol (10 μM). After the 20 minute incubation at 37° C., assay samples were rapidly filtered through Unifilter-96 GF/B PEI-coated filter plates and rinsed with ice-cold 50 mM Tris buffer (pH 7.4 at 4° C.). […] The IC50 value (concentration at which 50% inhibition of specific binding occurs) was calculated by linear regression of the concentration-response data in ActivityBase. Ki values were then calculated according to the Cheng-Prusoff equation:
(§3) [formula] where [L]=concentration of free radioligand and Kd=dissociation constant of radioligand for D3 receptor or D2 receptor.

[2] = target: human dopamine D2 receptor (hD2R) (Homo sapiens, UniProt P14416); assay: Human D2 receptor binding assay ([^3H]-Spiperone); conditions: CHO cells expressing hD2R, geometric mean of 2-5 determinations unless marked b (single determination)
human dopamine D2 receptor (hD2R), sequence (P14416 whole entry): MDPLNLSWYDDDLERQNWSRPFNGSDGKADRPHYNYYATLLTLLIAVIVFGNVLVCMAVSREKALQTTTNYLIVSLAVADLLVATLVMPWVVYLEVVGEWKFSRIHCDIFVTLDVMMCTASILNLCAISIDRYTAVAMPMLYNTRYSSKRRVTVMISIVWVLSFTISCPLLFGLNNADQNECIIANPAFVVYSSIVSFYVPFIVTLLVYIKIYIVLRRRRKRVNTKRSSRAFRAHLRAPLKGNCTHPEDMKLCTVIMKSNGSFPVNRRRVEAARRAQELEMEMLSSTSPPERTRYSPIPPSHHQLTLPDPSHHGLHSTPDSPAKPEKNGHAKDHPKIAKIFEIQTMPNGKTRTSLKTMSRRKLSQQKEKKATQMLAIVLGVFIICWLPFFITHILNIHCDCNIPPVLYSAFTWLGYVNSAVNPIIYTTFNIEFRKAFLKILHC
Protocol: as §1, §2, §3

human dopamine D3 receptor (hD3R), sequence (P35462 whole entry): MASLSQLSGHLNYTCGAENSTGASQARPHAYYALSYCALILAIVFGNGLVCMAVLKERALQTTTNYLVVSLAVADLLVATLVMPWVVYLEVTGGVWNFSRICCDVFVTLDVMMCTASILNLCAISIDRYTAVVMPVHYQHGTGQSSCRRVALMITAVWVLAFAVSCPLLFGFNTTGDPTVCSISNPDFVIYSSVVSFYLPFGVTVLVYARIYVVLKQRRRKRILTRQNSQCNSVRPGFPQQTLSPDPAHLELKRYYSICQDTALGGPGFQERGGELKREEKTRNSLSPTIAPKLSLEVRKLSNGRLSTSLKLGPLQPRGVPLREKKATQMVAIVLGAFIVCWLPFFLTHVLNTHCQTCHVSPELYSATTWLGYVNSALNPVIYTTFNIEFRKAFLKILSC

SMILES	Ki [1] [nM]	Ki [2] [nM]
COc1nc2c(cc1NS(=O)(=O)c1ccc(C3CC(F)(F)CCO3)cc1)CCN(C)CC2 (racemic) [Example 40, 4-(4,4-difluorotetrahydro-2H-pyran-2-yl)-N-(2-methoxy-7-methyl-6,7,8,9-tetrahydro-5H-pyrido[2,3-d]azepin-3-yl)benzenesulfonamide]	2.59	134
COc1nc2c(cc1NS(=O)(=O)c1ccc(C3CCCOC3)cc1)CCN(C)CC2 (racemic) [Example 77, N-(2-methoxy-7-methyl-6,7,8,9-tetrahydro-5H-pyrido[2,3-d]azepin-3-yl)-4-(tetrahydro-2H-pyran-3-yl)benzenesulfonamide]	4.52	549
COc1nc2c(cc1NS(=O)(=O)c1ccc(C3CC(F)(F)CCO3)cc1)CCN(C)CC2 (single isomer, unassigned) [Example 42]	5.91	402
CCN1CCc2cc(NS(=O)(=O)c3ccc(C4CCCCO4)cc3)c(OC)nc2CC1 (single isomer, unassigned) [Example 73]	4.41	1040
COc1nc2c(cc1NS(=O)(=O)c1ccc(C3CCCOC3)cc1)CCN(C)CC2 (single isomer, unassigned) [Example 83]	4.69	436
COc1nc2c(cc1NS(=O)(=O)c1ccc(C3CCCOC3)cc1)CCN(C)CC2 (single isomer, unassigned) [Example 84]	4.58	503
COc1nc2c(cc1NS(=O)(=O)c1ccc(C3CCOC(C)C3)cc1)CCN(C)CC2 (single isomer, unassigned) [Example 85]	3.24	303
COc1nc2c(cc1NS(=O)(=O)c1ccc(C3CCOC(C)(C)C3)cc1)CCN(C)CC2 (single isomer, unassigned) [Example 86]	35.2	1390
COc1nc2c(cc1NS(=O)(=O)c1ccc(C3CCOC(C)(C)C3)cc1)CCN(C)CC2 (single isomer, unassigned) [Example 87]	3.61	276
COc1nc2c(cc1NS(=O)(=O)c1ccc(C3CCOC(C)C3)cc1)CCN(C)CC2 (single isomer, unassigned) [Example 88]	6.84	651
CCN1CCc2cc(NS(=O)(=O)c3ccc(C4(F)CCC(OC)CC4)cc3)c(OC)nc2CC1 (single isomer, unassigned) [Example 94, N-(7-ethyl-2-methoxy-6,7,8,9-tetrahydro-5H-pyrido[2,3-d]azepin-3-yl)-4-(1-fluoro-4-methoxycyclohexyl)benzenesulfonamide]	2.71	727
COc1nc2c(cc1NS(=O)(=O)c1ccc(C3CC(F)CCO3)cc1)CCN(C)CC2 (single isomer, unassigned) [Example 106, 4-(4-fluorotetrahydro-2H-pyran-2-yl)-N-(2-methoxy-7-methyl-6,7,8,9-tetrahydro-5H-pyrido[2,3-d]azepin-3-yl)benzenesulfonamide]	4.31	320
COc1nc2c(cc1NS(=O)(=O)c1ccc(C3CC(F)CCO3)cc1)CCN(C)CC2 (single isomer, unassigned; diastereomer-1) [Example 108, 4-(4-fluorotetrahydro-2H-pyran-2-yl)-N-(2-methoxy-7-methyl-6,7,8,9-tetrahydro-5H-pyrido[2,3-d]azepin-3-yl)benzenesulfonamide, diastereomer-1]	15.1	1930
COc1nc2c(cc1NS(=O)(=O)c1ccc(C3CC(F)CCO3)cc1)CCN(C)CC2 (single isomer, unassigned; diastereomer-2) [Example 109, 4-(4-fluorotetrahydro-2H-pyran-2-yl)-N-(2-methoxy-7-methyl-6,7,8,9-tetrahydro-5H-pyrido[2,3-d]azepin-3-yl)benzenesulfonamide, diastereomer-2]	3.16	208
COc1nc2c(cc1NS(=O)(=O)c1ccc(C)cc1)CCN(C)CC2 [Example 5, N-(2-Methoxy-7-methyl-6,7,8,9-tetrahydro-5H-pyrido[2,3-d]azepin-3-yl)-4-methylbenzenesulfonamide]	3.72	333
COc1nc2c(cc1NS(=O)(=O)c1ccc([C@H]3CCCCO3)cc1)CCNCC2 [Example 9, N-(2-Methoxy-6,7,8,9-tetrahydro-5H-pyrido[2,3-d]azepin-3-yl)-4-[(2R)-tetrahydro-2H-pyran-2-yl]benzenesulfonamide]	7.68	1270
COc1nc2c(cc1NS(=O)(=O)c1ccc(C3(F)CCCC3)nc1)CCN(C)CC2 [Example 11, 6-(1-fluorocyclopentyl)-N-(2-methoxy-7-methyl-6,7,8,9-tetrahydro-5H-pyrido[2,3-d]azepin-3-yl)pyridine-3-sulfonamide]	3.31	106
COc1nc2c(cc1NS(=O)(=O)c1ccc(C3COC3)cc1)CCN(C)CC2 [Example 33, N-(2-methoxy-7-methyl-6,7,8,9-tetrahydro-5H-pyrido[2,3-d]azepin-3-yl)-4-(oxetan-3-yl)benzenesulfonamide]	3.68	–

The remaining compounds from weak to strong by Ki [1], led by results:

Ki [1] [nM]	Ki [2] [nM]	SMILES
2.58	202	CCN1CCc2cc(NS(=O)(=O)c3ccc(C4CCCCO4)cc3)c(OC)nc2CC1 (single isomer, unassigned) [Example 74]
2.31	177	COc1nc2c(cc1NS(=O)(=O)c1ccc(C3CC(F)(F)CCO3)cc1)CCN(C)CC2 (single isomer, unassigned) [Example 41]
2.09	180	COc1nc2c(cc1NS(=O)(=O)c1ccc([C@@H]3CCCCO3)cc1)CCN(C)CC2 [Example 8, N-(2-Methoxy-7-methyl-6,7,8,9-tetrahydro-5H-pyrido[2,3-d]azepin-3-yl)-4-[(2S)-tetrahydro-2H-pyran-2-yl]benzenesulfonamide]
2.03	366	COc1nc2c(cc1NS(=O)(=O)c1ccc(C3(F)CCC(OC)CC3)cc1)CCN(C)CC2 (single isomer, unassigned) [Example 93, 4-(trans-1-fluoro-4-methoxycyclohexyl)-N-(2-methoxy-7-methyl-6,7,8,9-tetrahydro-5H-pyrido[2,3-d]azepin-3-yl)benzenesulfonamide]
2	294	CCN1CCc2cc(NS(=O)(=O)c3ccc(C4CCCCO4)cc3)c(OC)nc2CC1 (racemic) [Example 70, N-(7-ethyl-2-methoxy-6,7,8,9-tetrahydro-5H-pyrido[2,3-d]azepin-3-yl)-4-(tetrahydro-2H-pyran-2-yl)benzenesulfonamide]
1.95	561	COc1nc2c(cc1NS(=O)(=O)c1ccc(C3(F)CCC(OC)CC3)cc1)CCN(C)CC2 (single isomer, unassigned) [Example 39, 4-(cis-1-fluoro-4-methoxycyclohexyl)-N-(2-methoxy-7-methyl-6,7,8,9-tetrahydro-5H-pyrido[2,3-d]azepin-3-yl)benzenesulfonamide]
1.75	38.8	COc1nc2c(cc1NS(=O)(=O)c1ccc(C3CCCCC3)nc1)CCN(C)CC2 [Example 1, 6-Cyclohexyl-N-(2-methoxy-7-methyl-6,7,8,9-tetrahydro-5H-pyrido[2,3-d]azepin-3-yl)pyridine-3-sulfonamide]
1.56	85.9	COc1nc2c(cc1NS(=O)(=O)c1ccc([C@H]3C[C@H](OCCF)C3)cc1)CCN(C)CC2 [Example 3, 4-[trans-3-(2-Fluoroethoxy)cyclobutyl]-N-(2-methoxy-7-methyl-6,7,8,9-tetrahydro-5H-pyrido[2,3-d]azepin-3-yl)benzenesulfonamide]
1.53	104	COc1nc2c(cc1NS(=O)(=O)c1ccc(C3CCOCC3)cc1)CCN(C)CC2 [Example 4, N-(2-Methoxy-7-methyl-6,7,8,9-tetrahydro-5H-pyrido[2,3-d]azepin-3-yl)-4-(tetrahydro-2H-pyran-4-yl)benzenesulfonamide]
1.39	65.5	COc1nc2c(cc1NS(=O)(=O)c1ccc([C@H]3CCCCO3)cc1)CCN(C)CC2 [Example 7, N-(2-Methoxy-7-methyl-6,7,8,9-tetrahydro-5H-pyrido[2,3-d]azepin-3-yl)-4-[(2R)-tetrahydro-2H-pyran-2-yl]benzenesulfonamide]
1.16	99	COc1nc2c(cc1NS(=O)(=O)c1ccc([C@]3(F)C[C@H](OC)C3)cc1)CCN(C)CC2 [Example 10, 4-(trans-1-Fluoro-3-methoxycyclobutyl)-N-(2-methoxy-7-methyl-6,7,8,9-tetrahydro-5H-pyrido[2,3-d]azepin-3-yl)benzenesulfonamide]
0.866	54.6	COc1nc2c(cc1NS(=O)(=O)c1ccc(C3CCCCO3)cc1)CCN(C)CC2 (stereo not shown) [Example 6, N-(2-Methoxy-7-methyl-6,7,8,9-tetrahydro-5H-pyrido[2,3-d]azepin-3-yl)-4-(tetrahydro-2H-pyran-2-yl)benzenesulfonamide]
0.859	76	CCN1CCc2cc(NS(=O)(=O)c3ccc(OC4CCCC4)nc3)c(OC)nc2CC1 [Example 2, 6-(Cyclopentyloxy)-N-(7-ethyl-2-methoxy-6,7,8,9-tetrahydro-5H-pyrido[2,3-d]azepin-3-yl)pyridine-3-sulfonamide]
